Patent publication US6586006B2, “Solid delivery systems for controlled release of molecules incorporated therein and methods of making same” (Elan Drug Delivery Limited, priority 1994, dated 2003)

Key:
Type in all cases: physicochemical
[1] = Resistance of glasses to devitrification on exposure to relative humidity
Description: Glasses were made by evaporating DCM on a hotplate set at 65° C. from a 25% solutions of TOAC (50% solutions often deposited crystals in the pipette tip). Drying was carried out for 2 hr to be certain of complete dryness. Uniform glasses were produced by using an Eppendorf-type pipette to deliver 100 μl to a slide recently placed on the hotplate and then removing about 50 μl by using the clear/expel volume of the pipette.
XPDO was therefore incorporated into a TOAC glass by dissolving both crystalline TOAC and XPDO in DCM and evaporating the solvent at 70° C. on a hotplate. XPDO was used in proportions of 10% and 20% of total solids in the final TOAC glass.
The resulting glasses were tested for their utility as controlled release matrices in two ways. First, they were assessed for their ability to resist devitrification on exposure to high RH at RT. Second, they were immersed in water or phosphate-buffered saline (PBS) to study their solubility and rate of erosion by surface recrystallization.

[2] = Phycoerythrin fluorescence (functional activity) after solvents, heat or processing
Description: Glasses were formed by drying 20% solutions of either trehalose, lactitol, palatinit or GPS, containing MWPB and 1 mg/ml of the fluorescent algal protein phycoerythrin under vacuum (80 mTorr) for 16 hrs. The glasses were ground in a domestic coffee mill to yield a coarse powder which was used to fill the spinning head of a Kando K1 Kandy Floss cotton candy machine (GB Patent No. 1533012). The motor was then switched on and the powdered sugar glass heated at element settings between 5 and 9. Residence time in the spinning head was 2-10 min and a continuous process was maintained by constantly topping up the head.
A 400 μg/ml phycoerythrin solution was freeze-dried in a Labconco freeze-drier with or without 20% trehalose. The dried protein powder was exposed to a number of organic solvents for 72 hrs.
A 400 μg/ml phycoerythrin solution was freeze-dried in the FTS drier with or without 20% trehalose. […]

[3] = Glass transition temperature (Tg) by thermal analysis (DSC)
Text: In general, the tendency to crystallize, from a cooling melt or with reducing solvent, is low. Both devitrification and the fluidity of the melt at temperatures close to Tg, can be controlled by modifiers such as other derivative sugars and certain organic actives. The following two tables, generated as described in the Examples presented below, provide Tg and melting temperature data for a variety of HDCs suitable for use, either alone, or in a composite glass, herein.
Dissolution of synthetic corticosteroid XPDO (described below) into a TOAC melt and quenching to form the vitreous solid dose delivery system was achieved. By looking at the release of MB9 into aqueous solution, these experiments tested the compatibility of the steroid within the glass, subsequent recovery of the steroid and studied the effect that XPDO has on the properties of the delivery system formed looking at the release of MB9 into aqueous solution. TOAC (3.21 g) was pre-melted at 150° C., before being quenched to glass. The glass was finely ground with XPDO (0.15 g) before being remelted. The clear melt was again quenched to yield the composite HDC/active glass. Thermal analysis was carried out on a Rheometric Scientific Differential Scanning Calorimeter (DSC) at a heating rate of 10°/min under a nitrogen atmosphere. The following samples were prepared:
Studies were performed using the synthetic corticosteroid XPDO dissolved in DCM. The solution was spray dried in a Buchi B-191 spray drier, using an inlet temperature of 40° C. […] XPDO was incorporated at 20 wt %. The powder was completely amorphous as confirmed by thermal analysis (Tg=46° C.).

[4] = Controlled release of encapsulated MB9 dye from HDC glass beads/discs; details: FIG. 11
Description: In the following experiments, the delivery system was preformulated, whether as a single material, or as a mixed composition. This was carried out by intimately grinding the component HDCs together, followed by careful, controlled melting in a furnace, between 120-140° C. and with normal atmosphere to form melts. The melts were quenched to glass by pouring over a brass block. This glass was then finely ground.
MB9 dye (1 or 5 wt %) was mixed with the ground glass prior to re-melting at 140° C. The melt was quenched to form small glass beads (2.5 mm diameter) which were used in controlled release experiments.
Controlled release of encapsulated dye was monitored by suspending three such beads in 25 or 50 ml of deionized water or PBS solution at ambient temperatures (27-30° C.) or at 37° C., as indicated. The media were undisturbed, except for periodic stirring and were replaced at set intervals with fresh media (generally at 72 hr intervals). Both single HDC glasses and composite HDC glasses were formed. […] The use of other HDCs as glass modifiers in the composite HDC formulations enable the tailoring of the glasses formed to yield the release characteristics desired.
In FIG. 8, the results were obtained from TOAC glass discs (6 mm×2.5 mm) with MB9 dye evenly dispersed therein at 2 wt %. Release was controlled at 25° C. with gentle stirring and media changes at regular intervals. Note the linear release of MB9 dye over a 55 day period. The results presented in FIG. 8 indicate that a pure HDC vitreous delivery vehicle system gives zero-order release rates of guest substances. The results presented in FIGS. 9-14 show variation on release rates by changing the ratios of different HDCs in the delivery systems, changing the carbohydrate backbone length and by changing the nature of the derivative on the carbohydrate backbone. In each instance it is clear that the HDC delivery systems allow a wide range of release rates that can be tailored to the guest substance and the delivery thereof.

[5] = Water resistance and dye release of carboxylate, HDC or plastic coated/coformulated systems
Description: These particles were coated by adding them to a saturated solution of zinc palmitate (ZnC16) in toluene and cooling from 60° C. to 30° C. This deposited a layer of ZnC16 on the particles which were then filtered under vacuum to remove the excess ZnC16, washed with acetone and air-dried.
A fine amorphous film (100-200 μm thickness) was formed by casting on silicate glass slides and evaporating off the solvent in a warm air-stream.
Amorphous films were also formed from calcium neodecanoate dissolved in chloroform (0.5 g/10 ml) as described above.
Films of glucose glass incorporating 1 wt % MB9 were formulated by quenching from the melt. These films were coated with thin (100 μm thickness) amorphous metal carboxylate films by evaporation of solution of the carboxylate in chloroform (0.5 g/10 ml). The metal carboxylates used were aluminum hexanoate and octanoate, calcium neodecanoate and magnesium isostearate and neodecanoate. Dissolution of the films was monitored by release of dye into distilled water.

[6] = Enzyme activity after exposure to acetone, dried with or without trehalose; details: dried with 50% trehalose versus without, FIGS. 5A and 5B
Description: A 0.1 mg/ml horseradish peroxidase solution or a 1 mg/ml alkaline phosphatase/4 mg/ml bovine serum albumin solution was dried in an FTS Systems freeze drier with or without 50% trehalose. The drier was used as a vacuum drier and the mixtures dried without freezing. Four times the volume of solvent was added and the solution was allowed to evaporate to dryness. The contents were redissolved in 5 milliliters of water, and enzyme activity was assessed, in serial dilution, by commercial ‘kit’ reagents.

[7] = Weight loss and dye release of glucose pentaacetate glass discs in water
Description: Another glass disc of similar dimensions was prepared from α-D-glucose pentaacetate and placed in 1 l of water, which was replaced daily. After 7 days, the glass had lost 20% of its original weight. The release rate of the dye was higher in the first day as the release happened mainly from the surface of the glass disc.

[8] = freeze-dried powder in pyridine

**Q.** With `OC[C@H]1O[C@H](O[C@H]2O[C@H](CO)[C@@H](O)[C@H](O)[C@H]2O)[C@H](O)[C@@H](O)[C@@H]1O` [Trehalose, α-D-glucopyranosyl-α-D-glucopyranoside] as the compound, how does the “recrystallization of glass on storage” value ([1]; trehalose glass from evaporating water from 50% trehalose solution) read?
**A.** Its value is “gradually recrystallized over a period of several weeks”.

**Q.** With phycoerythrin as the compound, how does the “fluorescence after exposure to organic solvent” value ([2]; dimethylsulfoxide, powder solubilized) read?
**A.** Its value is “remained fluorescent”.

**Q.** What about the “functional activity after storage at 100° C.” value ([2]; dried in trehalose, one month) of the same compound?
**A.** The value was “no detectable loss of functional activity”.

**Q.** What about the “time by which fluorescence was lost” value [2, 8] of the same compound?
**A.** Its value is ≤ 72 h.

**Q.** And the time fluorescence remained [2, 8]?
**A.** The time fluorescence remained was 24 to 48 h.

**Q.** What about the “fluorescence after exposure to organic solvent” value ([2]; freeze-dried with 20% trehalose, acetone, acetonitrile chloroform and methanol, 72 hrs) of the same compound?
**A.** The value was “remained fluorescent”.

**Q.** What about the “biological activity as assessed by fluorescence” value ([2]; in spun sugar glass microneedles) of the same compound?
**A.** The value was “retention of biological activity”.

**Q.** And the “biological functionality by ability to fluoresce” value ([2]; trehalose glass powder co-melted into carboxylate glass at 95° C.)?
**A.** Its value is “retained its biological functionality”.

**Q.** What about the “fluorescence in carboxylate glass formed by evaporation” value ([2]; trehalose glass powder in 1:1 sodium octanoate/zinc ethylhexanoate, chloroform) of the same compound?
**A.** Its value is “remained fluorescent”.

**Q.** What about the “fluorescence in perspex block” value ([2]; trehalose glass powder in perspex from chloroform) of the same compound?
**A.** Its value is “remained fluorescent”.

**Q.** Which “Tg/° C.” value ([3]; single HDC glasses (Table 1)) does the source give for `CCCCCCCCO[C@@H]1O[C@H](COC(C)=O)[C@@H](OC(C)=O)[C@H](OC(C)=O)[C@H]1OC(C)=O` [OGTA, 1-0-Octyl-β-D-glucose tetraacetate] here?
**A.** The value was −10 °C.

**Q.** Which results are given for `CC(=O)OCC1OC(OCC2OC(OC3(COC(C)=O)OC(COC(C)=O)C(OC(C)=O)C3OC(C)=O)C(OC(C)=O)C(OC(C)=O)C2OC(C)=O)C(OC(C)=O)C(OC(C)=O)C1OC(C)=O` (stereo not shown) [RUDA, raffinose undecaacetate]?
**A.** Tg/° C. ([3]; single HDC glasses (Table 1)): 55 °C; Tg/° C. ([3]; single and composite HDC glasses, mole ratios of HDCs in glass (Table 2)): 55 °C; MB9 release profile ([4]; TOAC/RUDA glass spheres into PBS): biphasic release rate; initial fast release of MB9 dye ([4]; glass spheres into PBS, in 5 days): about 60%

**Q.** Which “Tg/° C.” value ([3]; single HDC glasses (Table 1)) does the source give for `CC(=O)OC[C@H]1O[C@@H](O[C@H]2[C@H](OC(C)=O)[C@@H](OC(C)=O)C(OC(C)=O)O[C@@H]2COC(C)=O)[C@H](OC(C)=O)[C@@H](OC(C)=O)[C@@H]1OC(C)=O` (stereo partly shown) [COAC, cellobiose octaacetate] here?
**A.** Its value is 65 °C.

**Q.** With calcium neodecanoate as the compound, how does the “dye release relative to film dissolution” value ([5]; film with MB9 in distilled water, 24 hr, Ca2+ by atomic adsorption spectroscopy) read?
**A.** The value was “followed the dissolution of the films”.

**Q.** For alkaline phosphatase, which “resistance of enzyme activity to acetone” value [6] is on record?
**A.** Its value is “more resistant to acetone”.

**Q.** Which “Tg/° C.” value ([3]; single HDC glasses (Table 1)) does the source give for `CCC(=O)OCC1OC(OC2OC(COC(=O)CC)C(OC(=O)CC)C(OC(=O)CC)C2OC(=O)CC)C(OC(=O)CC)C(OC(=O)CC)C1OC(=O)CC` (stereo not shown) [TOPR, trehalose octapropanoate] here?
**A.** The value was 3 °C.

**Q.** What about the “devitrification at RH from 75% to 95%” value ([1]; thin glass films and quenched disks, RT, overnight exposure) of the same compound?
**A.** Its value is “very susceptible to devitrification at high RH”.

**Q.** For `CC(=O)OC[C@H]1O[C@@](COC(C)=O)(O[C@H]2O[C@H](COC(C)=O)[C@@H](OC(C)=O)[C@H](OC(C)=O)[C@H]2OC(C)=O)[C@@H](OC(C)=O)[C@@H]1OC(C)=O` [SOAC, sucrose octaacetate], which “Tg/° C.” value ([3]; single HDC glasses (Table 1)) is on record?
**A.** Its value is 25 °C.

**Q.** For `CC(=O)OC[C@H]1O[C@H](OC(C)=O)[C@H](OC(C)=O)[C@@H](OC(C)=O)[C@@H]1OC(C)=O` [α-GPAC, α-glucose pentaacetate], which “Tg/° C.” value ([3]; single HDC glasses (Table 1)) is on record?
**A.** The value was 14 °C.

**Q.** What about the “loss of original weight” value ([7]; glass disc in 1 l of water replaced daily, after 7 days) of the same compound?
**A.** Its value is 20%.

**Q.** And the “rate of release of encapsulated Acid Blue dye” value ([7]; glass disc in water, FIG. 7)?
**A.** Its value is “quite constant”.

**Q.** With Aluminum hexanoate as the compound, how does the “devitrification of film during dye release” value ([5]; 100-200 μm film, 1 wt % MB9, distilled water, 5 hr) read?
**A.** The value was “No devitrification”.

**Q.** With horseradish peroxidase as the compound, how does the “resistance of enzyme activity to acetone” value [6] read?
**A.** Its value is “more resistant to acetone”.

**Q.** With zinc palmitate [ZnC16] as the compound, how does the “wetting of coated powder in water” value ([5]; spray-dried trehalose/calcium lactate/MB9 particles coated with ZnC16) read?
**A.** Its value is “remained unwetted in water for at least three days”.

**Q.** With magnesium isostearate as the compound, how does the “delay of dye release” value ([5]; glucose glass film with 1 wt % MB9 coated with 100 μm metal carboxylate film, distilled water) read?
**A.** The value was 10 days.

**Q.** Which “Tg/° C.” value ([3]; single HDC glasses (Table 1)) does the source give for `CC(=O)OC[C@H]1O[C@@H](OC(C)=O)[C@H](OC(C)=O)[C@@H](OC(C)=O)[C@@H]1OC(C)=O` [β-GPAC, β-glucose pentaacetate] here?
**A.** The value was 17 °C.

**Q.** What about the “solubility of glass in water” value [7] of the same compound?
**A.** Its value is “poorly soluble in water”.

**Q.** And the “loss of original weight” value ([7]; glass disc 20 mm diameter, 2.5 mm thick, flowing water, 10 days)?
**A.** The value was “about 33%”.
